Earlier results, collected in paper PMC4198065 (ACS Chemical Neuroscience, 2014).

What was measured:
food intake in mice = conditions: effect lasting up to 24 h
[1] = test system: food consumption and body weight in rats; conditions: ICV

## AGRP: endogenous antagonist of the MC3R and MC4R (SSRRCVRLHESCLGQQVPCCDPCATCYCRFFNAFCYCRKLGTAMNPCSRT; UniProt O00253 83-132, looked up)
Food intake in mice
  food intake after central administration: robustly increased food intake

## Ac-Nle-c[Asp-His-DPhe-Arg-Trp-Lys]-NH2 (sidechain bridge or staple) [MTII]
[1]; 1.0 nmol dose
  48 h food consumption: reduced 48 h food consumption
[1]; at 24 and 48 h (0.1 and 1.0 nmol doses, respectively)
  body weight post treatment: reduced body weight at 24 and 48 h

## Ac-RRWWRF-NH2 [AST789-13, Ac-RRWWRF-NH2]
other
  half-life in human serum: 1.5 h
